Test results as given in the NIST ThermoML archive (doi:10.1021/je030236t).

Legend:
[1] = Liquid
[2] = molar enthalpy of vaporization or sublimation; conditions: 298.15 K; Liquid

CCCCCCCCCCCCCCCCCCCCCCCCCCCCCCCCCCCCCC [octatriacontane]
[1]
Conditions | vapor or sublimation pressure [kPa]
298.15 K | 5.13e-15
310 K | 9.81e-14
320 K | 9.59e-13
330 K | 7.88e-12
340 K | 5.54e-11
350 K | 3.38e-10
360 K | 1.81e-09
370 K | 8.6e-09
380 K | 3.67e-08
390 K | 1.42e-07
400 K | 5.03e-07
410 K | 1.64e-06
420 K | 4.95e-06
430 K | 1.39e-05
440 K | 3.68e-05
450 K | 9.16e-05
460 K | 0.000216
470 K | 0.000484
480 K | 0.00104
490 K | 0.00212
500 K | 0.00417
510 K | 0.00791
520 K | 0.0145
530 K | 0.0257
540 K | 0.0441
550 K | 0.0738
560 K | 0.12
570 K | 0.191
580 K | 0.296

Conditions | molar enthalpy [kcal/mol]
[2] | 46

CCCCCCCCCCCCCCCCCCCCCCCCCCCCCCCCCCC [pentatriacontane]
[1]
Conditions | vapor or sublimation pressure [kPa]
298.15 K | 1.22e-13
310 K | 1.86e-12
320 K | 1.53e-11
330 K | 1.07e-10
340 K | 6.52e-10
350 K | 3.46e-09
360 K | 1.63e-08
370 K | 6.91e-08
380 K | 2.64e-07
390 K | 9.25e-07
400 K | 2.97e-06
410 K | 8.87e-06
420 K | 2.46e-05
430 K | 6.42e-05
440 K | 0.000158
450 K | 0.000367
460 K | 0.000812
470 K | 0.00171
480 K | 0.00346
490 K | 0.00673
500 K | 0.0126
510 K | 0.0228
520 K | 0.0399
530 K | 0.0678
540 K | 0.112
550 K | 0.181
560 K | 0.284
570 K | 0.436
580 K | 0.657

Conditions | molar enthalpy [kcal/mol]
[2] | 42.5

CCCCCCCCCCCCCCCCCCCCCCCCCCCCCCCCCC [tetratriacontane]
[1]
Conditions | vapor or sublimation pressure [kPa]
298.15 K | 3.83e-13
310 K | 5.39e-12
320 K | 4.16e-11
330 K | 2.75e-10
340 K | 1.58e-09
350 K | 7.97e-09
360 K | 3.59e-08
370 K | 1.45e-07
380 K | 5.34e-07
390 K | 1.8e-06
400 K | 5.58e-06
410 K | 1.61e-05
420 K | 4.34e-05
430 K | 0.00011
440 K | 0.000263
450 K | 0.000596
460 K | 0.00129
470 K | 0.00266
480 K | 0.00527
490 K | 0.01
500 K | 0.0184
510 K | 0.0328
520 K | 0.0564
530 K | 0.0944
540 K | 0.154
550 K | 0.244
560 K | 0.379
570 K | 0.575
580 K | 0.856

Conditions | molar enthalpy [kcal/mol]
[2] | 41.3

CCCCCCCCCCCCCCCCCCCCCCCCCCCCCCCCC [tritriacontane]
[1]
Conditions | vapor or sublimation pressure [kPa]
298.15 K | 1.19e-12
310 K | 1.54e-11
320 K | 1.11e-10
330 K | 6.95e-10
340 K | 3.79e-09
350 K | 1.82e-08
360 K | 7.83e-08
370 K | 3.04e-07
380 K | 1.07e-06
390 K | 3.49e-06
400 K | 1.05e-05
410 K | 2.92e-05
420 K | 7.65e-05
430 K | 0.000189
440 K | 0.000439
450 K | 0.000972
460 K | 0.00205
470 K | 0.00415
480 K | 0.00805
490 K | 0.015
500 K | 0.0272
510 K | 0.0474
520 K | 0.0804
530 K | 0.133
540 K | 0.213
550 K | 0.334
560 K | 0.511
570 K | 0.767
580 K | 1.13

Conditions | molar enthalpy [kcal/mol]
[2] | 40.1
